Experimental data taken from patent publication US4499091A, “1-Amino (or substituted amino)-1,4-dihydro-4-oxo-6-fluoro-7-heterylquinoline-3-carboxylic acids and their use as antibacterial agents” (Sterling Drug Inc., priority 1983, dated 1985).
Converted amounts (≈) assume the structure as drawn. Where two headings read alike, the source gives them in different places.

How the values were obtained:
Escherichia coli Vogel [1] = assay: in vitro antibacterial activity, serial dilution (MIC); format: cell-based; details: 18-20 hours static incubation, read-out: Minimal Inhibitory Concentration (MIC)
Experimental: (§1) The in vitro antibacterial activity of the compounds of the invention was determined by conventional serial dilution procedures. Bacterial cultures were grown in tryptose phosphate broth or brain heart infusion broth (containing heat-inactivated normal horse serum for tests with S. pyogenes) overnight at 37° C. and subsequently diluted in double strength broth to provide bacterial inocula of about 2×10^5 cells/ml. Aqueous solutions of the compounds of the invention were prepared by dissolving the free acid form in 0.5N sodium hydroxide. The solutions were diluted with sterile distilled water to 1000 mcg/ml of compound in terms of the free acid. Serial two-fold dilutions of the compound stock solutions were prepared in water and 0.5 ml of each dilution was transferred to sets of tubes, one set for each bacterial inoculum.

[2] = system: Klebsiella pneumoniae 39645; assay: as above; format: cell-based; details: 18-20 hours static incubation, read-out: Minimal Inhibitory Concentration (MIC)
Experimental: as §1

Proteus mirabilis MGH-1 = assay: as above; format: cell-based; details: MGH1, 18-20 hours static incubation, read-out: Minimal Inhibitory Concentration (MIC)
Experimental: as §1

Escherichia coli Vogel [3] = assay: in vivo antibacterial activity in mice infected with E. coli (PD50); set-up: species or system mouse (female) infected with Escherichia coli; details: 168 h
Experimental: (§2) The in vivo antibacterial activity of the compounds of the invention was determined in female mice, 18-20 grams each, by the following procedure:
(§3) Aqueous solutions of the compounds to be tested were prepared by dissolving the free acid form in dilute sodium hydroxide and diluting the solution with distilled water to be desired volume.
(§4) Cultures of Escherichia coli Vogel prepared in brain heart infusion broth, cultures of Klebsiella pneumoniae 39645 grown in tryptose phosphate broth with 5% rabbit serum diluted in the same broth and cultures of Pseudomonas aeruginosa MGH-2 grown on brain heart infusion agar and suspended in physiological saline, were used to infect the mice as follows:
Mice infected with E. coli were medicated once (0.5 ml) one-half hour post infection, the test compound being administered by either the subcutaneous (s.c.) or oral (p.o.) route. Deaths were recorded daily for seven days.
(§5) Groups of ten animals each for four or five dose levels were thus treated and the number of survivors in each group recorded. The fifty percent protective dose values (PD50) were then calculated.

[4] = system: Klebsiella pneumoniae 39645; assay: in vivo antibacterial activity in mice infected with K. pneumoniae (PD50); set-up: species or system mouse (female) infected with Klebsiella pneumoniae
Experimental: as §2, §3, §4
K. pneumoniae: mice were inoculated intramuscularly in the right hind leg with 0.2 ml of the bacterial test inoculum (2.05×10^4 cells/ml).
Mice infected with K. pneumoniae were medicated at the following times: seventeen hours and one hour preinfection, six hours postinfection and twice a day for the next three days. The test compound was administered by both subcutaneous (0.2 ml) and oral (0.5 ml) routes. Deaths were recorded daily for fourteen days.
as §5

Proteus vulgaris 9920 = assay: in vitro antibacterial activity, serial dilution (MIC); format: cell-based; details: 18-20 hours static incubation, read-out: Minimal Inhibitory Concentration (MIC)
Experimental: as §1

[5] = system: Staphylococcus aureus Smith; assay: as above; format: cell-based; details: 18-20 hours static incubation, read-out: Minimal Inhibitory Concentration (MIC)
Experimental: as §1

[6] = system: Streptococcus pyogenes C203; assay: as above; format: cell-based; details: 18-20 hours static incubation, read-out: Minimal Inhibitory Concentration (MIC)
Experimental: as §1

[7] = system: Pseudomonas aeruginosa MGH-2; assay: as above; format: cell-based; details: MGH2, 18-20 hours static incubation, read-out: Minimal Inhibitory Concentration (MIC)
Experimental: as §1

[8] = Klebsiella pneumoniae, 39645, sc, 336 h, mouse, K. pneumoniae, s.c., pre- and postinfection, 14 days, read-out: Protective Dose (PD50)
[9] = sc, mouse, E. coli, s.c., once one-half hour post infection, 7 days, read-out: Protective Dose (PD50)

Row | Compound | MIC (Escherichia coli Vogel [1]) [µg/mL] | MIC [2] [µg/mL] | MIC (Proteus mirabilis MGH-1) [µg/mL] | ED50 (Escherichia coli Vogel [3]; mouse, E. coli, route not stated, read-out: fifty percent protective dose) [mg/kg] | ED50 ([4]; Klebsiella pneumoniae, 39645, 336 h, mouse, K. pneum., route not stated, read-out: fifty percent protective dose) [mg/kg] | MIC (Proteus vulgaris 9920) [µg/mL] | MIC [5] [µg/mL] | MIC [6] [µg/mL] | MIC [7] [µg/mL] | ED50 ([4]; Klebsiella pneumoniae, 39645, po, 336 h, mouse, K. pneumoniae, p.o., pre- and postinfection, 14 days, read-out: Protective Dose (PD50)) [mg/kg] | ED50 [4, 8] [mg/kg] | ED50 (Escherichia coli Vogel [3]; sc, read-out: Protective Dose (PD50)) [mg/kg] | ED50 ([4]; Klebsiella pneumoniae, 39645, sc, 336 h, read-out: Protective Dose (PD50)) [mg/kg] | ED50 (Escherichia coli Vogel [3]; [9]) [mg/kg]
1 | CNn1cc(C(=O)O)c(=O)c2cc(F)c(N3CC[N+](C)([O-])CC3)cc21 [4'-oxide] | 16 (≈ 45.7 µM) | 32 (≈ 91.3 µM) | 32 (≈ 91.3 µM) |  |  |  |  |  |  |  |  |  |  | 
2 | CNn1cc(C(=O)O)c(=O)c2cc(F)c(Cl)cc21 [7-Chloro-6-fluoro-1,4-dihydro-1-methylamino-4-oxo-3-quinolinecarboxylic acid] | 1 (≈ 3.69 µM) | 1.95 (≈ 7.2 µM) | 1 (≈ 3.69 µM) | 56 | 186 |  |  |  |  |  |  |  |  | 
3 | CCCNn1cc(C(=O)O)c(=O)c2cc(F)c(Cl)cc21 [7-Chloro-6-fluoro-1,4-dihydro-4-oxo-1-propylamino-3-quinolinecarboxylic acid] | 15.6 (≈ 52.2 µM) | 31.3 (≈ 105 µM) |  |  |  | 3.9 (≈ 13.1 µM) | 15.6 (≈ 52.2 µM) | 15.6 (≈ 52.2 µM) |  |  |  |  |  | 
4 | CNn1cc(C(=O)O)c(=O)c2cc(F)c(N3CCN(C)CC3)cc21 [Example 1, 6-Fluoro-1,4-dihydro-1-methylamino-7-(4-methyl-1-piperazinyl)-4-oxo-3-quinolinecarboxylic acid] | 0.25 (≈ 0.748 µM) | 0.25 (≈ 0.748 µM) | 0.5 (≈ 1.5 µM) |  |  | 0.125 (≈ 0.374 µM) |  |  | 1 (≈ 2.99 µM) | 10.6 | 8.8 |  |  | 
5 | Nn1cc(C(=O)O)c(=O)c2cc(F)c(N3CCNCC3)cc21 [Example 2, 1-Amino-6-fluoro-1,4-dihydro-4-oxo-7-(1-piperazinyl)-3-quinolinecarboxylic acid] |  |  |  |  |  |  | 31.3 (≈ 102 µM) |  | 62.5 (≈ 204 µM) |  |  | > 200 | > 200 | 
6 | CCNn1cc(C(=O)O)c(=O)c2cc(F)c(N3CCN(C)CC3)cc21 [Example 5, 1-Ethylamino-6-fluoro-1,4-dihydro-7-(4-methyl-1-piperazinyl)-4-oxo-3-quinolinecarboxylic acid] | 0.5 (≈ 1.44 µM) | 0.5 (≈ 1.44 µM) |  |  |  | 0.25 (≈ 0.718 µM) |  | 31.3 (≈ 89.8 µM) |  |  | 90 |  |  | 4.1
7 | CCN1CCN(c2cc3c(cc2F)c(=O)c(C(=O)O)cn3NC)CC1 [Example 8, 7-(4-Ethyl-1-piperazinyl)-6-fluoro-1,4-dihydro-1-methylamino-4-oxo-3-quinolinecarboxylic acid] | 0.5 (≈ 1.44 µM) | 0.5 (≈ 1.44 µM) | 1 (≈ 2.87 µM) |  |  | 0.25 (≈ 0.718 µM) | 1 (≈ 2.87 µM) |  | 2 (≈ 5.74 µM) |  | 15.1 |  |  | 1.4
8 | CCOC(=O)c1cn(NC)c2cc(N3CCN(C)CC3)c(F)cc2c1=O [Example 9, Ethyl 6-fluoro-1,4-dihydro-1-methylamino-7-(4-methyl-1-piperazinyl)-4-oxo-3-quinolinecarboxylate] | 62.5 (≈ 172 µM) | 62.5 (≈ 172 µM) | 12.5 (≈ 34.5 µM) |  |  | 31.3 (≈ 86.4 µM) |  |  |  |  | > 200 |  |  | 4.4
9 | CCCN1CCN(c2cc3c(cc2F)c(=O)c(C(=O)O)cn3NC)CC1 [Example 11, 6-Fluoro-1,4-dihydro-1-methylamino-4-oxo-7-(4-propyl-1-piperazinyl)-3-quinolinecarboxylic acid] | 0.25 (≈ 0.69 µM) | 0.5 (≈ 1.38 µM) | 1 (≈ 2.76 µM) |  |  | 0.25 (≈ 0.69 µM) | 1.95 (≈ 5.38 µM) |  |  |  | 81.5 |  |  | 14.8
10 | C=CCNn1cc(C(=O)O)c(=O)c2cc(F)c(N3CCN(C)CC3)cc21 [Example 12, 6-Fluoro-1,4-dihydro-7-(4-methyl-1-piperazinyl)-4-oxo-1-(2-propenylamino)-3-quinolinecarboxylic acid] | 1 (≈ 2.77 µM) | 1.95 (≈ 5.41 µM) |  |  |  | 1 (≈ 2.77 µM) |  | 62.5 (≈ 173 µM) | 15.6 (≈ 43.3 µM) |  | 141 |  |  | 18.9
11 | CNn1cc(C(=O)O)c(=O)c2cc(F)c(N3CCOCC3)cc21 [Example 13, 6-Fluoro-1,4-dihydro-1-methylamino-7-(4-morpholinyl)-4-oxo-3-quinolinecarboxylic acid] | 0.5 (≈ 1.56 µM) | 1.95 (≈ 6.07 µM) |  |  |  | 0.125 (≈ 0.389 µM) | 1 (≈ 3.11 µM) | 15.6 (≈ 48.6 µM) | 15.6 (≈ 48.6 µM) |  | 200 |  |  | 16.3
12 | CNn1cc(C(=O)O)c(=O)c2cc(F)c(N3CCCCC3)cc21 [Example 15, 6-Fluoro-1,4-dihydro-1-methylamino-4-oxo-7-(1-piperidinyl)-3-quinolinecarboxylic acid] |  |  |  |  |  | 0.5 (≈ 1.57 µM) | 1.95 (≈ 6.11 µM) |  |  |  | > 200 |  |  | > 200
13 | CNn1cc(C(=O)O)c(=O)c2cc(F)c(N3CCCC3)cc21 [Example 16, 6-Fluoro-1,4-dihydro-1-methylamino-4-oxo-7-(1-pyrrolidinyl)-3-quinolinecarboxylic acid] | 1 (≈ 3.28 µM) |  |  |  |  | 0.5 (≈ 1.64 µM) | 0.5 (≈ 1.64 µM) |  |  |  | > 200 |  |  | > 200
14 | CNn1cc(C(=O)O)c(=O)c2cc(F)c(N3CCC(O)CC3)cc21 [Example 17, 6-Fluoro-1,4-dihydro-7-(4-hydroxy-1-piperidinyl)-1-methylamino-4-oxo-3-quinolinecarboxylic acid] | 1.95 (≈ 5.82 µM) |  |  |  |  | 0.125 (≈ 0.373 µM) | 1.95 (≈ 5.82 µM) | 31.3 (≈ 93.3 µM) |  |  | 200 |  |  | 12.5
15 | CNn1cc(C(=O)O)c(=O)c2cc(F)c(N3CCCC(O)C3)cc21 (stereo not drawn) [Example 18, 6-Fluoro-1,4-dihydro-7-(3-hydroxy-1-piperidinyl)-1-methylamino-4-oxo-3-quinolinecarboxylic acid] |  |  |  |  |  | 0.25 (≈ 0.746 µM) | 1.95 (≈ 5.82 µM) | 15.6 (≈ 46.5 µM) | 31.3 (≈ 93.3 µM) |  | > 200 |  |  | 38
16 | CNn1cc(C(=O)O)c(=O)c2cc(F)c(N3CCCNCC3)cc21 [Example 19, 6-Fluoro-7-(hexahydro-1H-1,4-diazapin-1-yl)-1,4-dihydro-1-methylamino-4-oxo-3-quinolinecarboxylic acid] |  | 15.6 (≈ 46.7 µM) | 1.95 (≈ 5.83 µM) |  |  | 1 (≈ 2.99 µM) |  | 31.3 (≈ 93.6 µM) |  |  | > 50 |  |  | 2.5
17 | CN1CCN(c2cc3c(cc2F)c(=O)c(C(=O)O)cn3N(C)C=O)CC1 [Example 23, 6-Fluoro-1-(N-formylmethylamino)-1,4-dihydro-7-(4-methyl-1-piperazinyl)-4-oxo-3-quinolinecarboxylic acid] | 1.95 (≈ 5.38 µM) | 1.95 (≈ 5.38 µM) |  |  |  | 1 (≈ 2.76 µM) | 15.6 (≈ 43.1 µM) |  |  |  | > 200 |  |  | 10.4
